Test results from US8912202B2, “N-(benzimimdazol-2-yl)-cyclopropane carboxamides as lysophosphatidic acid antagonists” (Merck Patent GmbH, priority 2011, dated 2014).

Molecular target: T1, LPA2R (Homo sapiens, UniProt Q9HBW0)
T1 construct: expressed in transfected cells; host or cells: U2OS
Test: LPA2R-Calciumflux assay (FLIPR, intracellular calcium mobilisation after LPA)
Type: cell-based
Conditions: U2OS cells recombinant expressing LPA2R; antagonism of LPA-induced calcium flux; racemate of the two trans enantiomers unless marked enantiomer
Text: The assay detects intra cellular calcium which is generated by cells upon activation of the LPA2 receptor by its ligand LPA. This transient calcium mobilization can be monitored using a commercial calcium detection kit (e.g. from Molecular Devices). The main component of such a kit is a dye, which becomes fluorescent when calcium is present—a transient fluorescence signal after addition of a ligand to a test well are the result. Readers like the FLIPR (Molecular Devices) can be used to monitor such transient “Ca-flux” signals.
The signals are calculated according to peak maximum minus base line.
Compounds which are antagonists of LPA lead to a decreased mobilisation of intracellular calcium and thus to a lower signal. The assay is performed in microplates (384 wells per plate).
LPA2R-Calciumflux Assay Protocol
The assay is run according to the following procedure:
50 uL seed cells (10000 cells/well in DMEM buffer)
• Incubate 24 h at 37° C., 10% CO2 • aspirate medium 50 uL add calcium dye 1×HBSS/HEPES buffer • incubate 1 h at 37° C. (“loading”) • equilibrate 10 min at RT 5 uL add compounds in HEPES buffer • shake 10 sec. at 1000 rpm • incubate 15 min at RT 20 uL add LPA (in the FLIPR Tetra) in Krebs-buffer/BSA & measurement
The cells are seeded in DMEM buffer (DMEM, 10% FCS, 10 mM HEPES, 1% Pen/Strep).
Dye loading is done in HBSS/HEPES buffer (100 mL 10×HBSS+20 mL 1M HEPES+880 mL water, pH 7.4)
The LPA is added in Krebs/BSA buffer (120 mM NaCl, 5 mM KCl, 0.62 mM MgSO4, 1.8 mM CaCl2, 10 mM HEPES, 6 mM D(+)-Glucose, 0.2% BSA, pH 7.4).
The compounds are pre-diluted in HEPES buffer (20 mM, pH 7.4), whereby the final DMSO content in the assay is kept at 1%. The compounds are pre-diluted in order to generate dose response series on the microplates. The dose response series consist of 10 concentrations for each compound from 30 uM final to 1 nM final. From all compound wells the resulting signals are referred to control wells (located on each plate besides the compound wells) in terms of % activity.
From these % activity values—along with the corresponding compound concentrations—IC50 values are fitted for each compound using standard fitting programs such as Graphpad Prism. Here the method “log(inhibitor) vs. response—Variable slope” is used.

T1 sequence (Q9HBW0 whole entry): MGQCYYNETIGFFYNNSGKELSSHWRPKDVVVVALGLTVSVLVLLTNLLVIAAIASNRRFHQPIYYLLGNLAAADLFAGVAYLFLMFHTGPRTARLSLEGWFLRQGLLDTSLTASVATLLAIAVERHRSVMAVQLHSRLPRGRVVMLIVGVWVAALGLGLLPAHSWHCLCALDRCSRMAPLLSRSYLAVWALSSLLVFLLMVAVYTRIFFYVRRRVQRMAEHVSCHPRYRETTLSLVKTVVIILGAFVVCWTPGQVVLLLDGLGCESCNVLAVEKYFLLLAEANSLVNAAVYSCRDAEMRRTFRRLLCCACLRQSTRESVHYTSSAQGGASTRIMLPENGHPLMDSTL

IC50 [nM]	SMILES
10 to 100	O=C(Nc1nc2ccccc2[nH]1)C1CC1c1cccc(F)c1 (racemic) [2-(3-Fluoro-phenyl)-cyclopropane-carboxylic acid (1H-benzoimidazol-2-yl)-amide]
> 10000	CC1(C)C(C(=O)Nc2nc3ccc(Cl)cc3[nH]2)C1c1ccccc1 (racemic) [2,2-Dimethyl-3-phenyl-cyclopropane-carboxylic acid (6-chloro-1H-benzoimidazol-2-yl)-amide]
100 to 1000	O=C(Nc1nc2ccccc2[nH]1)C1C(c2ccccc2)C1(F)F (racemic) [2,2-Difluoro-3-phenyl-cyclopropane-carboxylic acid (1H-benzoimidazol-2-yl)-amide]
< 10	O=C(Nc1nc2cc(Cl)cnc2[nH]1)C1CC1c1ccccc1 (single isomer, unassigned; enantiomer-2) [enantiomer-2-Phenyl-cyclopropane-carboxylic acid (6-chloro-3H-imidazo[4,5-b]pyridin-2-yl)-amide]
10 to 100	Cc1cccc(C2CC2C(=O)Nc2nc3ccccc3[nH]2)c1 (racemic) [2-m-Tolyl-cyclopropane-carboxylic acid (1H-benzoimidazol-2-yl)-amide]
10 to 100	O=C(Nc1nc2ccccc2[nH]1)C1CC1c1ccc(F)cc1 (racemic) [2-(4-Fluoro-phenyl)-cyclopropane-carboxylic acid (1H-benzoimidazol-2-yl)-amide]
1000 to 10000	O=C(Nc1nc2cc(OCCN3CCCC3)ccc2[nH]1)C1CC1c1ccccc1 (single isomer, unassigned; enantiomer-2) [enantiomer-2-Phenyl-cyclopropane-carboxylic acid [5-(2-pyrrolidin-1-yl-ethoxy)-1H-benzoimidazol-2-yl]-amide]
> 10000	CC1(C)C(C(=O)Nc2nc3ccccc3[nH]2)C1c1ccccc1 (racemic) [2,2-Dimethyl-3-phenyl-cyclopropane-carboxylic acid (1H-benzoimidazol-2-yl)-amide]
10 to 100	Cc1cc2nc(NC(=O)C3CC3c3ccccc3)[nH]c2cc1C (racemic) [2-Phenyl-cyclopropane-carboxylic acid (5,6-dimethyl-1H-benzoimidazol-2-yl)-amide]
10 to 100	O=C(Nc1nc2cccnc2[nH]1)C1CC1c1ccccc1 (racemic) [2-Phenyl-cyclopropane-carboxylic acid (3H-imidazo[4,5-b]pyridin-2-yl)-amide]
10 to 100	O=C(Nc1nc2ccccc2[nH]1)C1CC1c1ccccc1Cl (racemic) [2-(2-Chloro-phenyl)-cyclopropane-carboxylic acid (1H-benzoimidazol-2-yl)-amide]
> 10000	CC(C)(C)c1ccc(C2CC2C(=O)Nc2nc3ccccc3[nH]2)cc1 (racemic) [2-(4-tert-Butyl-phenyl)-cyclopropane-carboxylic acid (1H-benzoimidazol-2-yl)-amide]
100 to 1000	CN(C)c1ccccc1C1CC1C(=O)Nc1nc2ccccc2[nH]1 (racemic) [2-(2-Dimethylamino-phenyl)-cyclopropane-carboxylic acid (1H-benzoimidazol-2-yl)-amide]
> 10000	COc1cccc(C2CC2C(=O)Nc2nc3ccccc3[nH]2)c1 (racemic) [2-(3-Methoxy-phenyl)-cyclopropane-carboxylic acid (1H-benzoimidazol-2-yl)-amide]
100 to 1000	O=C(Nc1nc2ccc(C(F)(F)F)cc2[nH]1)C1C(c2ccccc2)C1(F)F (racemic) [2,2-Difluoro-3-phenyl-cyclopropane-carboxylic acid (6-trifluoromethyl-1H-benzoimidazol-2-yl)-amide]
> 10000	O=C(Nc1n[nH]c2ccccc12)C1CC1c1ccccc1 (racemic) [2-Phenyl-cyclopropane-carboxylic acid (1H-indazol-3-yl)-amide]
1000 to 10000	CN(C(=O)C1CC1c1ccccc1)c1nc2ccccc2[nH]1 (racemic) [2-Phenyl-cyclopropane-carboxylic acid (1H-benzoimidazol-2-yl)-methyl-amide]
< 10	O=C(Nc1nc2ccccc2[nH]1)C1CC1c1ccccc1 (single isomer, unassigned; enantiomer-2) [drawing 59, enantiomer-2-Phenyl-cyclopropane-carboxylic acid (1H-benzoimidazol-2-yl)-amide]

IC50 [nM]	SMILES
100 to 1000	Cc1cccc2nc(NC(=O)C3CC3c3ccccc3)[nH]c12 (racemic) [2-Phenyl-cyclopropane-carboxylic acid (7-methyl-1H-benzoimidazol-2-yl)-amide]
10 to 100	O=C(Nc1nc2ccc(Cl)cc2[nH]1)C1C(c2ccccc2)C1(F)F (racemic) [2,2-Difluoro-3-phenyl-cyclopropane-carboxylic acid (6-chloro-1H-benzoimidazol-2-yl)-amide]
1000 to 10000	O=C(Nc1nc2cncnc2[nH]1)C1CC1c1ccccc1 (racemic) [2-Phenyl-cyclopropane-carboxylic acid (9H-purin-8-yl)-amide]
10 to 100	O=C(Nc1nc2ccccc2[nH]1)C1CC1c1cccc(Br)c1 (racemic) [2-(3-Bromo-phenyl)-cyclopropane-carboxylic acid (1H-benzoimidazol-2-yl)-amide]
10 to 100	O=C(Nc1nc2ccccc2[nH]1)C1CC1c1cccc([N+](=O)[O-])c1 (racemic) [2-(3-Nitro-phenyl)-cyclopropane-carboxylic acid (1H-benzoimidazol-2-yl)-amide]
< 10	O=C(Nc1nc2cc(Br)cnc2[nH]1)C1CC1c1ccccc1 (racemic) [2-Phenyl-cyclopropane-carboxylic acid (6-bromo-3H-imidazo[4,5-b]pyridin-2-yl)-amide]
< 10	O=C(Nc1nc2cc(Cl)cnc2[nH]1)C1CC1c1cccc(F)c1 (racemic) [2-(3-Fluoro-phenyl)-cyclopropane-carboxylic acid (6-chloro-3H-imidazo[4,5-b]pyridin-2-yl)-amide]
10 to 100	O=C(Nc1nc2ccccc2[nH]1)C1CC1c1cc(Br)ccc1F (racemic) [2-(5-Bromo-2-fluoro-phenyl)-cyclopropane-carboxylic acid (1H-benzoimidazol-2-yl)-amide]
10 to 100	O=C(Nc1nc2cc(C(F)(F)F)ccc2[nH]1)C1CC1c1ccccc1 (racemic) [2-Phenyl-cyclopropane-carboxylic acid (6-trifluoromethyl-1H-benzoimidazol-2-yl)-amide]
10 to 100	O=C(Nc1nc2ccccc2[nH]1)C1CC1c1ccccc1Cl (single isomer, unassigned) [enantiomer-2-(2-Chloro-phenyl)-cyclopropane-carboxylic acid (1H-benzoimidazol-2-yl)-amide]
10 to 100	O=C(Nc1nc2ccnc(Cl)c2[nH]1)C1CC1c1ccccc1 (single isomer, unassigned; enantiomer-2) [enantiomer-2-Phenyl-cyclopropane-carboxylic acid (4-chloro-3H-imidazo[4,5-c]pyridin-2-yl)-amide]
100 to 1000	O=C(Nc1nc2ccc(Cl)cc2[nH]1)C1CC1c1ccccc1Cl (single isomer, unassigned; enantiomer-2) [enantiomer-2-(2-Chloro-phenyl)-cyclopropane-carboxylic acid (6-chloro-1H-benzoimidazol-2-yl)-amide]
> 10000	O=C(Nc1nc2ccccc2[nH]1)C1CC1c1ccccc1Cl (single isomer, unassigned; enantiomer-2) [drawing 76, enantiomer-2-(2-Chloro-phenyl)-cyclopropane-carboxylic acid (1H-benzoimidazol-2-yl)-amide]
1000 to 10000	O=C(Nc1nc2cc(Cl)cnc2[nH]1)[C@@H]1C[C@H]1c1ccccc1 (single isomer, unassigned) [trans-2-Phenyl-cyclopropane-carboxylic acid (6-chloro-3H-imidazo[4,5-b]pyridin-2-yl)-amide]
1000 to 10000	O=C(OCc1ccccc1)C1CCN(CNc2cccc3[nH]c(NC(=O)C4CC4c4ccccc4)nc23)C1 (racemic) [1-({2-[(2-Phenyl-cyclopropane-carbonyl)-amino]-1H-benzoimidazol-4-ylamino)-methyl)-pyrrolidine-3-carboxylic acid benzyl ester]
> 10000	O=C(Nc1nc2ccccc2[nH]1)C1CC1c1ccccc1C(F)(F)F (racemic) [2-(2-Trifluoromethyl-phenyl)-cyclopropane-carboxylic acid (1H-benzoimidazol-2-yl)-amide]
> 10000	O=C(Nc1nc2ccncc2[nH]1)C1CC1c1ccccc1 (racemic) [2-Phenyl-cyclopropane-carboxylic acid (3H-imidazo[4,5-c]pyridin-2-yl)-amide]
